Experiments:
Format in all cases: in vivo
Abutilon theophrasti [1] = assay: Pre-emergence herbicidal action against ABUTH; conditions: visual score after 3 weeks vs untreated controls
Method in brief: (§1)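 Pre-emergence soil-surface spray of formulated compound (WP or EC; 600 to 800 l/ha; 0.2% wetting agent) over seeds sown in sandy loam. After 3 weeks under greenhouse conditions, damage is estimated visually in percent against untreated plants.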

Alopecurus myosuroides [2] = assay: Pre-emergence herbicidal action against ALOMY; conditions: visual score after 3 weeks vs untreated controls
Method in brief: as §1

Amaranthus retroflexus [3] = assay: Pre-emergence herbicidal action against AMARE; conditions: visual score after 3 weeks vs untreated controls
Method in brief: as §1

Avena fatua [4] = assay: Pre-emergence herbicidal action against AVEFA; conditions: visual score after 3 weeks vs untreated controls
Method in brief: as §1

Cyperus esculentus [5] = assay: Pre-emergence herbicidal action against CYPES; conditions: visual score after 3 weeks vs untreated controls
Method in brief: as §1

Echinochloa crus-galli [6] = assay: Pre-emergence herbicidal action against ECHCG; conditions: 320 g/ha; visual score after 3 weeks vs untreated controls
Method in brief: as §1

Matricaria inodora [7] = assay: Pre-emergence herbicidal action against MATIN; conditions: visual score after 3 weeks vs untreated controls
Method in brief: as §1

Hordeum murinum = assay: Pre-emergence herbicidal action against HORMU; conditions: 320 g/ha; visual score after 3 weeks vs untreated controls
Method in brief: as §1

Lolium rigidum [8] = assay: Pre-emergence herbicidal action against LOLRI; conditions: 320 g/ha
Method in brief: as §1

Polygonum convolvulus [9] = assay: Pre-emergence herbicidal action against POLCO
Method in brief: as §1

Setaria viridis [10] = assay: Pre-emergence herbicidal action against SETVI
Method in brief: as §1

Stellaria media [11] = assay: Pre-emergence herbicidal action against STEME
Method in brief: as §1

Veronica persica [12] = assay: Pre-emergence herbicidal action against VERPE
Method in brief: as §1

Viola tricolor [13] = assay: Pre-emergence herbicidal action against VIOTR; conditions: 320 g/ha
Method in brief: as §1

Abutilon theophrasti [14] = assay: Post-emergence herbicidal action against ABUTH
Method in brief: (§2)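 Spray, one-leaf stage: WP or EC compound in water, 600–800 l/ha, 0.2% wetting agent. Plants held about 3 weeks in the greenhouse, then visually rated in percent of kill compared with untreated controls.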

Alopecurus myosuroides [15] = assay: Post-emergence herbicidal action against ALOMY
Method in brief: as §2

Amaranthus retroflexus [16] = assay: Post-emergence herbicidal action against AMARE; conditions: visual assessment about 3 weeks after treatment
Method in brief: as §2

Avena fatua [17] = assay: Post-emergence herbicidal action against AVEFA; conditions: visual assessment about 3 weeks after treatment
Method in brief: as §2

Cyperus esculentus [18] = assay: Post-emergence herbicidal action against CYPES; conditions: 80 g/ha, visual assessment about 3 weeks after treatment
Method: (§3) Seeds of monocotyledonous and dicotyledonous weed and crop plants are laid out in sandy loam soil in wood-fiber pots, covered with soil and cultivated in a greenhouse under good growth conditions. 2 to 3 weeks after sowing, the test plants are treated at the one-leaf stage. The compounds of the invention, formulated in the form of wettable powders (WP) or as emulsion concentrates (EC), are then sprayed onto the green parts of the plants in the form of an aqueous suspension or emulsion at a water application rate equivalent to 600 to 800 l/ha, with addition of 0.2% wetting agent. After the test plants have been left to stand in the greenhouse under optimal growth conditions for about 3 weeks, the action of the preparations is assessed visually in comparison to untreated controls (herbicidal action in percent (%): 100% activity=the plants have died, 0% activity=like control plants). […] The tables below illustrate, in an illustrative manner, the post-emergence herbicidal action of the compounds of the invention, the herbicidal activity being stated in percent.

Echinochloa crus-galli [19] = assay: Post-emergence herbicidal action against ECHCG; conditions: visual assessment about 3 weeks after treatment
Method in brief: as §2

Matricaria inodora [20] = assay: Post-emergence herbicidal action against MATIN; conditions: visual assessment about 3 weeks after treatment
Method in brief: as §2

Pharbitis purpurea = assay: Post-emergence herbicidal action against PHBPU; conditions: visual assessment about 3 weeks after treatment
Method in brief: as §2

Lolium rigidum [21] = assay: Post-emergence herbicidal action against LOLRI; conditions: 80 g/ha
Method: as §3

Polygonum convolvulus [22] = assay: Post-emergence herbicidal action against POLCO; conditions: 80 g/ha, visual assessment about 3 weeks after treatment
Method in brief: as §2

Setaria viridis [23] = assay: Post-emergence herbicidal action against SETVI; conditions: visual assessment about 3 weeks after treatment
Method in brief: as §2

Stellaria media [24] = assay: Post-emergence herbicidal action against STEME; conditions: visual assessment about 3 weeks after treatment
Method in brief: as §2

Veronica persica [25] = assay: Post-emergence herbicidal action against VERPE; conditions: visual assessment about 3 weeks after treatment
Method in brief: as §2

Viola tricolor [26] = assay: Post-emergence herbicidal action against VIOTR
Method in brief: as §2

SMILES: CCn1nnnc1NC(=O)c1ccc(C(F)(F)F)c(C(=O)N2CCCC2)c1Cl [Example 2-152]
- Pre-emergence action against ABUTH (Abutilon theophrasti [1]; 20 g/ha): 100%
- Pre-emergence action against ABUTH (Abutilon theophrasti [1]; 80 g/ha): 100%
- Pre-emergence action against ABUTH (Abutilon theophrasti [1]; Dosage column 320 g/ha (heading prints 3200 g/ha)): 100%
- Pre-emergence action against ALOMY (Alopecurus myosuroides [2]; 80 g/ha): 90%
- Pre-emergence action against ALOMY (Alopecurus myosuroides [2]; 320 g/ha): 100%
- Pre-emergence action against AMARE (Amaranthus retroflexus [3]; 20 g/ha): 100%
- Pre-emergence action against AMARE (Amaranthus retroflexus [3]; 80 g/ha): 100%
- Pre-emergence action against AMARE (Amaranthus retroflexus [3]; 320 g/ha): 100%
- Pre-emergence action against AVEFA (Avena fatua [4]; 80 g/ha): 100%
- Pre-emergence action against AVEFA (Avena fatua [4]; 320 g/ha): 100%
- Pre-emergence action against CYPES (Cyperus esculentus [5]; 80 g/ha): 80%
- Pre-emergence action against CYPES (Cyperus esculentus [5]; 320 g/ha): 100%
- Pre-emergence action against ECHCG (Echinochloa crus-galli [6]): 100%
- Pre-emergence action against MATIN (Matricaria inodora [7]; 20 g/ha): 90%
- Pre-emergence action against MATIN (Matricaria inodora [7]; 80 g/ha): 100%
- Pre-emergence action against MATIN (Matricaria inodora [7]; 320 g/ha): 100%
- Pre-emergence action against HORMU (Hordeum murinum): 80%
- Pre-emergence action against LOLRI (Lolium rigidum [8]): 100%
- Pre-emergence action against POLCO (Polygonum convolvulus [9]; 80 g/ha): 80%
- Pre-emergence action against POLCO (Polygonum convolvulus [9]; 320 g/ha): 90%
- Pre-emergence action against SETVI (Setaria viridis [10]; 80 g/ha): 90%
- Pre-emergence action against SETVI (Setaria viridis [10]; 320 g/ha): 100%
- Pre-emergence action against STEME (Stellaria media [11]; 20 g/ha): 100%
- Pre-emergence action against STEME (Stellaria media [11]; 80 g/ha): 100%
- Pre-emergence action against STEME (Stellaria media [11]; 320 g/ha): 100%
- Pre-emergence action against VERPE (Veronica persica [12]; 80 g/ha): 80%
- Pre-emergence action against VERPE (Veronica persica [12]; 320 g/ha): 100%
- Pre-emergence action against VIOTR (Viola tricolor [13]): 100%
- Post-emergence action against ABUTH (Abutilon theophrasti [14]; 5 g/ha): 80%
- Post-emergence action against ABUTH (Abutilon theophrasti [14]; 20 g/ha): 80%
- Post-emergence action against ABUTH (Abutilon theophrasti [14]; 80 g/ha): 80%
- Post-emergence action against ALOMY (Alopecurus myosuroides [15]; 5 g/ha): 80%
- Post-emergence action against ALOMY (Alopecurus myosuroides [15]; 20 g/ha): 90%
- Post-emergence action against ALOMY (Alopecurus myosuroides [15]; 80 g/ha): 100%
- Post-emergence action against AMARE in % (Amaranthus retroflexus [16]; 5 g/ha): 100%
- Post-emergence action against AMARE in % (Amaranthus retroflexus [16]; 20 g/ha): 100%
- Post-emergence action against AMARE in % (Amaranthus retroflexus [16]; 80 g/ha): 100%
- Post-emergence action against AVEFA in % (Avena fatua [17]; 5 g/ha): 80%
- Post-emergence action against AVEFA in % (Avena fatua [17]; 20 g/ha): 100%
- Post-emergence action against AVEFA in % (Avena fatua [17]; 80 g/ha): 100%
- Post-emergence action against CYPES in % (Cyperus esculentus [18]): 80%
- Post-emergence action against ECHCG in % (Echinochloa crus-galli [19]; 20 g/ha): 100%
- Post-emergence action against ECHCG in % (Echinochloa crus-galli [19]; 80 g/ha): 100%
- Post-emergence action against MATIN in % (Matricaria inodora [20]; 5 g/ha): 80%
- Post-emergence action against MATIN in % (Matricaria inodora [20]; 20 g/ha): 80%
- Post-emergence action against MATIN in % (Matricaria inodora [20]; 80 g/ha): 100%
- Post-emergence action against PHBPU in % (Pharbitis purpurea; 20 g/ha): 80%
- Post-emergence action against PHBPU in % (Pharbitis purpurea; 80 g/ha): 80%
- Post-emergence action against LOLRI in % (Lolium rigidum [21]): 90%
- Post-emergence action against POLCO in % (Polygonum convolvulus [22]): 80%
- Post-emergence action against SETVI in % (Setaria viridis [23]; 20 g/ha): 80%
- Post-emergence action against SETVI in % (Setaria viridis [23]; 80 g/ha): 100%
- Post-emergence action against STEME in % (Stellaria media [24]; 5 g/ha): 80%
- Post-emergence action against STEME in % (Stellaria media [24]; 20 g/ha): 90%
- Post-emergence action against STEME in % (Stellaria media [24]; 80 g/ha): 90%
- Post-emergence action against VERPE in % (Veronica persica [25]; 5 g/ha): 80%
- Post-emergence action against VERPE in % (Veronica persica [25]; 20 g/ha): 80%
- Post-emergence action against VERPE in % (Veronica persica [25]; 80 g/ha): 80%
- Post-emergence action against VIOTR in % (Viola tricolor [26]; 20 g/ha): 100%
- Post-emergence action against VIOTR in % (Viola tricolor [26]; 80 g/ha): 100%
